Data: patent publication US11981752B2, “Tumor associated monocyte/macrophage binding peptide and methods of use thereof” (Sanford Burnham Prebys Medical Discovery Institute, priority 2017, dated 2024)
“Also recorded” adds a separate entry of the source. Read-outs that look alike come from different tables or passages of the source. Bridge positions count the residues as written; N and C are the ends. Ends that are not written are not given here.

Columns and labels:
PI3Kδ = PI3Kδ (Homo sapiens, UniProt O00329); conditions: cited from earlier work
J774A.1 cells [1] = test: Phage display screening (CX7C T7 library) on J774A.1 cells; conditions: high throughput sequencing of phage clones bound to J774A.1 cells after three rounds of enrichment; terminal cysteines omitted
[2] = system: other kinases (named per endpoint); conditions: cited from earlier work
mTOR = mTOR (Homo sapiens, UniProt P42345); conditions: cited from earlier work
PI3Kβ = PI3Kβ (Homo sapiens, UniProt P42338); conditions: cited from earlier work
ATR = ATR (Homo sapiens, UniProt Q13535); conditions: cited from earlier work
J774A.1 cells [3] = test: In vitro peptide binding, flow cytometry, J774A.1; type: cell-based, mouse
Procedure: (§1) J774A.1 and RAW264.7 cells were obtained from ATCC. Cells were maintained in Dulbecco's Modified Eagle Medium supplemented with 10% fetal bovine serum, 1% Glutamine-Pen-Strep and […].
(§2) Cells were incubated on a rotator with peptides added at a final concentration of 10 μM in DMEM plus 1% BSA. For inhibition studies, biotin-CRV was added to a final concentration of 500 μM together with FAM-CRV (10 μM final). After 1 h at 4° C., cells were washed 3 times with PBS followed by flow cytometry analysis.
(§3) The peptide corresponding to the sequence of the top clone: […] (referred to as CRV herein; SEQ ID NO:1) was then synthesized. A green carboxy-fluorescein label (FAM) was added to the N-terminus of CRV to aid detection. CRV binding to two macrophage cell lines, J774A.1 and Raw264.7 was tested. Control peptides used were ARA ([…]; SEQ ID NO:8) and […] (SEQ ID NO:9).

Raw264.7 cells = test: In vitro peptide binding, flow cytometry, Raw264.7; type: cell-based; conditions: FAM-labeled peptide 10 μM, 1 h at 4° C., controls ARA, GGSGGSKG
Procedure: as §1, §2, §3

4T1 breast tumors = test: In vivo peptide homing in mice bearing orthotopic 4T1 breast tumors; conditions: 1 hour
Procedure: (§4) To produce 4T1 tumors, 1×10^6 4 T1 cells (ATCC) suspended in 100 μl of PBS were injected into the mammary fat pad of wild type Balb/c female mice. C57BL/6 mice bearing atherosclerosis plaques were generated as previously described (She et al., Journal of Controlled Release 238:212-20 (2016)). Animal experimentation was performed according to the procedures approved by the Animal Research Committee at the Sanford-Burnham Medical Research Institute.
(§5) Orthotopic 4T1 tumors were used when they reached 0.5-1 cm in size. For tumor or plaque homing, 200 μg FAM-labeled peptide dissolved in 100 μl PBS was injected intravenously into mice. After 1 hour of circulation, the mice were euthanized by cardiac perfusion with PBS under anesthesia, and tumors and other organs (or plaques on the aorta) were dissected and analyzed for peptide homing.
In vivo tissue distribution of CRV peptide in tumor mice was investigated. FAM-CRV was injected intravenously into mice bearing 4T1 breast tumors. After 1 hour, perfusion through the heart was performed to eliminate any circulating peptide. Heart, lung, liver, kidney, spleen, and tumor were excised and the FAM-CRV signal was imaged with an illuminator.
CRV homing in tumor mice was investigated. Mice with orthotopic 4T1 breast tumors (n=2) were intravenously injected with 100 μg of CRV peptide labeled with a green fluorophor (FAM). The peptide was allowed to circulate for 1 hour, and the mice were perfused through the left ventricle of the heart to eliminate any peptide remaining in the blood. Major organs were excised and examined under visible and fluorescent light.

[4] = system: cells isolated from 4T1 tumors; test: Ex vivo binding of FAM-CRV to cells isolated from 4T1 tumors; type: cell-based, mice; conditions: FAM-CRV 10 μM, 1-hour at 4° C., flow cytometry
Procedure: To determine the identity of the cells that FAM-CRV localized in within the tumors, ex vivo binding of FAM-CRV to cells isolated from tumors was studied. Tumors were excised from mice bearing 4T1 breast cancer and dissociated into single cell populations using MACS dissociation kit according to the manufacturer's instructions. FAM-CRV was added to a final concentration of 10 μM into a solution of DMEM+1% BSA containing 2 million tumor cells. After 1-hour incubation at 4° C., cells were stained with various immune cell markers. The markers tested include: CD11b (pan-monocyte/macrophage marker), Ly6-G (granulocytic monocyte), CCR2 (infiltrating monocytes), F4/80, CD4 (helper T cells), CD8 (cytotoxic T cells). Cells were stained for the indicated markers and subjected to flow cytometry analysis. The analysis was performed using antibodies to the indicated macrophage markers on CRV-positive cells.

[5] = system: macrophages in atherosclerosis plaques; test: In vivo homing to atherosclerosis plaques; parameters: species or system mice; conditions: 200 μg FAM-labeled peptide intravenously, 1 hour of circulation
Procedure: as §4, §5
Therefore, whether CRV also binds to macrophages in this model was investigated. 200 μg FAM-labeled peptide or control peptide ARA, each dissolved in 100 μl PBS, was injected intravenously into mice. After 1 hour of circulation, the mice were euthanized by cardiac perfusion with PBS under anesthesia, and tumors and other organs (or plaques on the aorta) were dissected and imaged with illuminator for FAM signal.

[6] = system: macrophages in sites of infection; test: Targeting of macrophages in sites of infection; type: in vivo; conditions: microbial, viral, or bacterial infection; no method given
PI3Kγ = PI3Kγ (Homo sapiens, UniProt P48736); conditions: cited from earlier work
DNA-PK = DNA-PK (Homo sapiens, UniProt P78527); conditions: cited from earlier work
class I PI3K isoforms = conditions: cited from earlier work
[7] = system: macrophages in atherosclerosis plaques; conditions: ApoE null mice fed high fat diet (She et al. 2016); cited from earlier work
tumor = conditions: systemic treatment of mice; cited from earlier work
atherosclerotic plaque = conditions: systemic treatment of mice; cited from earlier work

Sequence of PI3Kγ (P48736 whole entry, species assumed): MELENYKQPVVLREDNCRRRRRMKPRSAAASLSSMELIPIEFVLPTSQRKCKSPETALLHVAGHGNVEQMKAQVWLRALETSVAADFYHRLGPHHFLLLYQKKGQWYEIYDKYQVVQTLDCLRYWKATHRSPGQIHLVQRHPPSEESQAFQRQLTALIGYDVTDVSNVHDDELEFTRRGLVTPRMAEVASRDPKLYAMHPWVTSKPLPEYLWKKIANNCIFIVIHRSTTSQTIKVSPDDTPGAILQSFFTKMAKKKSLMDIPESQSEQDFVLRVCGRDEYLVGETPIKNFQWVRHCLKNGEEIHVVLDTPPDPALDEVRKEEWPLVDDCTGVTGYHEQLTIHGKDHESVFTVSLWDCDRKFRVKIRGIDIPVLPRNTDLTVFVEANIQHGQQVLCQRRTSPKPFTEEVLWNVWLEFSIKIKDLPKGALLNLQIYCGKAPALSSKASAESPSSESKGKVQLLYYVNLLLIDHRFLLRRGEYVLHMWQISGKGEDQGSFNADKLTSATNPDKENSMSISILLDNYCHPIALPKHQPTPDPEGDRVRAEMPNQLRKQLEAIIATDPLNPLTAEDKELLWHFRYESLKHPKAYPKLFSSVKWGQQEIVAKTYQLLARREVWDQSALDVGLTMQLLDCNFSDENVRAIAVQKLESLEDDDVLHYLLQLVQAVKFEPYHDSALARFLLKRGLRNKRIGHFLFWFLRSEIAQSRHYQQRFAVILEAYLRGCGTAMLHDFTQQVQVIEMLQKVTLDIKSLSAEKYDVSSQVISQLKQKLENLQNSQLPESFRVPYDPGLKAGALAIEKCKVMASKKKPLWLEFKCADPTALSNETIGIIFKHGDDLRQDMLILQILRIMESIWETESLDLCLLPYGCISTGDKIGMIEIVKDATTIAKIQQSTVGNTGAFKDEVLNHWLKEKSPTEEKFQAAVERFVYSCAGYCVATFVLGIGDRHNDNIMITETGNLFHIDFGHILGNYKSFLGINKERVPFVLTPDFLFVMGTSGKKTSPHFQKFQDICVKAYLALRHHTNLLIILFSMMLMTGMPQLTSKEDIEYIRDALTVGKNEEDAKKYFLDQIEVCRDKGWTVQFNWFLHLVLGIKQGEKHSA
Sequence of PI3Kδ (O00329 whole entry, species assumed): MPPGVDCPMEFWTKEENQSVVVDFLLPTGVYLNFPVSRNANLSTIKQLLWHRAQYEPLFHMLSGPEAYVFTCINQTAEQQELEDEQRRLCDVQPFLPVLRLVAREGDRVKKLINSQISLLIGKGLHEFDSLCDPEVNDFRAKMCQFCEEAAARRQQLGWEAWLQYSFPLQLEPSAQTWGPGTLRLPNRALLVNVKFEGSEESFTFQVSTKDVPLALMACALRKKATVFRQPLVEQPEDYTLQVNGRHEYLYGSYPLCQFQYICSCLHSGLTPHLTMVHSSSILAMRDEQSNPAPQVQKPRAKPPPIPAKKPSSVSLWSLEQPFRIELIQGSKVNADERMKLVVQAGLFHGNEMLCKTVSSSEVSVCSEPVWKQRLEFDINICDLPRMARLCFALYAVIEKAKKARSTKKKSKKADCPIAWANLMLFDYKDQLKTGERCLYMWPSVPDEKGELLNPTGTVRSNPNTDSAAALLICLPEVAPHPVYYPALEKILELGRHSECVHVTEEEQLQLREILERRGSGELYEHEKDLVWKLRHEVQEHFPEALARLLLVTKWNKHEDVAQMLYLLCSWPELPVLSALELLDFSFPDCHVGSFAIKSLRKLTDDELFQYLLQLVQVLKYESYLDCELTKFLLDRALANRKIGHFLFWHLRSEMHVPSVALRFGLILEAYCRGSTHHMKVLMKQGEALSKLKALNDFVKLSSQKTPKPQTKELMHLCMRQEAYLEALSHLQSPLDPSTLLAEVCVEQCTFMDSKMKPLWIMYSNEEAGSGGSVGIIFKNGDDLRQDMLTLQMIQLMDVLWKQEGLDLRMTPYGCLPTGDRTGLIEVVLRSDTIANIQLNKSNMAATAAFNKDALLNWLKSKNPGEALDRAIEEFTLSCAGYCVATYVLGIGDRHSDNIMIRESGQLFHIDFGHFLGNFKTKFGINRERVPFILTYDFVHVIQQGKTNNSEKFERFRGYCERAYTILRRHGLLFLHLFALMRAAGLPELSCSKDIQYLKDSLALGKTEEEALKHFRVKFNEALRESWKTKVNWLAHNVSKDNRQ
Sequence of PI3Kδ (P27986 whole entry partner, species assumed): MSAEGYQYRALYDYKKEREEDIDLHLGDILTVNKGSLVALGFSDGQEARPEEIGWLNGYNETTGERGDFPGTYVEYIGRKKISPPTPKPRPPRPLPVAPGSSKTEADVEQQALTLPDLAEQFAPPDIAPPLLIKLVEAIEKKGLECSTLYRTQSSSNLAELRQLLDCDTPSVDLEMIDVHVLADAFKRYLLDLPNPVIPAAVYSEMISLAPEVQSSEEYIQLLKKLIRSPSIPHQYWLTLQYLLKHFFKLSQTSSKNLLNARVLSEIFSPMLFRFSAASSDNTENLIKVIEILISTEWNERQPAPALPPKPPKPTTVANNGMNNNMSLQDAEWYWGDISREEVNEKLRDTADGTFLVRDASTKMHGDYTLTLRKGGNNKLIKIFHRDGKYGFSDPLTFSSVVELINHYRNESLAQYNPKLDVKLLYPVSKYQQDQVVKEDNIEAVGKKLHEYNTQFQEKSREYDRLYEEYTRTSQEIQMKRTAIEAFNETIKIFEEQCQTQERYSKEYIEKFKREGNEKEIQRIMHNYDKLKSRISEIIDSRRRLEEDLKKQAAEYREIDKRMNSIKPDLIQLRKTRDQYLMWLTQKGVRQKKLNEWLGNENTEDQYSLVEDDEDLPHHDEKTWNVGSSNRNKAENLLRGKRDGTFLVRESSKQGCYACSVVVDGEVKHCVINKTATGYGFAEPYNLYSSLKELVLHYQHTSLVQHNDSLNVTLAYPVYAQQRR
Sequence of PI3Kβ (P42338 whole entry, species assumed): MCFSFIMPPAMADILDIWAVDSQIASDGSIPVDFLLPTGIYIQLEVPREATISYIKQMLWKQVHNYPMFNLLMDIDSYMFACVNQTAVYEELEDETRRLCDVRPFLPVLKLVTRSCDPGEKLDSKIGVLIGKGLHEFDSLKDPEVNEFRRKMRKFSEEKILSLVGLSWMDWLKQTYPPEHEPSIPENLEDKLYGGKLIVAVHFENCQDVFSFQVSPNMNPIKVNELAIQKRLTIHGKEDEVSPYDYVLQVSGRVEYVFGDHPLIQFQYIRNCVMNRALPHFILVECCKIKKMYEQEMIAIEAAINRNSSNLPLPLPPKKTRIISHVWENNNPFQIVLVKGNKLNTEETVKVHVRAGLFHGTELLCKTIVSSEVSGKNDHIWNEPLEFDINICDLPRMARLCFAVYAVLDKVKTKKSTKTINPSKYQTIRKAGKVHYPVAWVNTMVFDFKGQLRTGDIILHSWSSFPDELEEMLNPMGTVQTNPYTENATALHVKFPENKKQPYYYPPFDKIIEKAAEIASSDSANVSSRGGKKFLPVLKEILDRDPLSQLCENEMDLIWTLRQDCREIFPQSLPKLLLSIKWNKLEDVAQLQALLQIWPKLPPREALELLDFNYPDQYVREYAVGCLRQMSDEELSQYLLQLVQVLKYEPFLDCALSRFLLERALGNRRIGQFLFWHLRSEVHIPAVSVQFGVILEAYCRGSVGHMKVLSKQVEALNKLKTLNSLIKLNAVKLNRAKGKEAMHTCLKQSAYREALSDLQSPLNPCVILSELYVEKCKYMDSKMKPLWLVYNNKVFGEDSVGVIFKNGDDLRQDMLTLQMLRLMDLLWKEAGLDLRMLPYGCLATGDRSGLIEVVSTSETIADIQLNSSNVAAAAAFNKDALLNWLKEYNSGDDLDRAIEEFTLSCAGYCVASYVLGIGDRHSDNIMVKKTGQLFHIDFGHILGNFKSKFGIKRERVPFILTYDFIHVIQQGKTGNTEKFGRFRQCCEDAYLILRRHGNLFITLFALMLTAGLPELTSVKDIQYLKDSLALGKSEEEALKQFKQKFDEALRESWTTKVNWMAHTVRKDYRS
Sequence of PI3Kβ (P27986 whole entry partner, species assumed): as the sequence (P27986 whole entry partner, species assumed) above

Fc1ccc2[nH]ccc2c1-c1nc(N2CCOCC2)c2sc(CN3CCN(CC4CC4)CC3)cc2n1 [PI-3065]
selectivity ratio (PI3Kδ): > 70

GGRVLRS
Count (J774A.1 cells [1]): 62028

GRLLRSG
Count (J774A.1 cells [1]): 9124

SVGRSMRS
Count (J774A.1 cells [1]): 7916

CCn1c(=O)c(-c2cc[nH]n2)cc2c(C)nc(N)nc21 [SAR245409]
inhibition of DNA-PK and mTOR [2]: also inhibits DNA-PK and mTOR. Phase 1/2.

COc1ccc(-c2cc3c(C)nc(N)nc3n([C@H]3CC[C@H](OCCO)CC3)c2=O)cn1 [PF-04691502]
activity against Vps34, AKT, PDK1, p7056K, MEK, ERK, p38, or JNK [2]: nM, little activity against either Vps34, AKT,

GGASIT
Count (J774A.1 cells [1]): 8677

GRMLRSG
Count (J774A.1 cells [1]): 8922

CCn1nnc2c(N3CCOCC3)nc(-c3ccc(NC(=O)Nc4ccc(C(=O)N5CCN(C)CC5)cc4)cc3)nc21 [PKI-402]
IC50 (mTOR): 3 nM | IC50 (PI3Kβ): 7 nM

Cn1c(=O)n(-c2ccc(C(C)(C)C#N)cc2)c2c3cc(-c4cnc5ccccc5c4)ccc3ncc21 [BEZ235, Dactolisib]
IC50 (ATR): 21 nM | inhibition of Akt and PDK1 [2]: be a poor inhibitor to Akt and PDK1. Phase 2.

RVLRSGS
Count (J774A.1 cells [1]): 63428

CRVLRSGSC (disulfide 1-9 (inferred); also: FAM or biotin label) [TAM-homing peptide; tested with N-terminal FAM label (FAM-CRV) or biotin label (biotin-CRV)]
binding to J774A.1 cells versus control peptides (J774A.1 cells [3]; FAM-labeled peptide 10 μM, 1 h at 4° C., flow cytometry, controls ARA, GGSGGSKG): higher binding | effect of excess biotin-labeled CRV on binding of FAM-CRV to J774A.1 cells (J774A.1 cells [3]; biotin-CRV 500 μM (50-fold excess), FAM-CRV 10 μM): inhibited the binding | binding to Raw264.7 cells versus control peptides (Raw264.7 cells): higher binding | localization in tumor sections (fluorescence microscopy) (4T1 breast tumors; 100 μg FAM-labeled peptide intravenously): lack of co-localization of CRV with the blood vessel marker CD31; also recorded: entered into the extravascular compartment of the tumor; also recorded: Partial co-localization of CRV with the macrophage marker F4/80; also recorded: localizes in a CD45 leukocyte-rich tumor area; also recorded: co-localizes with macrophages having the macrophage markers F4/80 and with lymphatic vessels in tumors | organ fluorescence after injection of FAM-labeled peptide (4T1 breast tumors; 100 μg intravenously, perfusion, n=2): tumors were positive for peptide fluorescence; also recorded: Some fluorescence was seen in one lung; also recorded: kidneys were positive; also recorded: preferentially homes to tumors | in vivo tissue distribution (FAM signal of excised organs) (4T1 breast tumors; FAM-CRV intravenously, perfusion, heart, lung, liver, kidney, spleen, tumor): mainly found in the tumors and the kidneys, with trace amounts or none in the liver, spleen, lungs and heart | binding to different subtypes of CD11b+ cells (CD11b+Ly-6G+ vs. CD11b+Ly-6G-) [4]: binds equally well | share of CRV-positive cells that are CD11b+ cells [4]: ~80% | homing to atherosclerosis plaques [5]: does not home to plaques; also recorded: recognizes macrophages in tumors but not in atherosclerotic plaques | ability of the host to clear the infection [6]: markedly increased ability of the host to clear the infection

Cc1ccccc1-n1c(Cn2ncc3c(N)ncnc32)nc2cccc(C)c2c1=O [PIK-293]
IC50 (PI3Kγ): 10000 nM | IC50 (PI3Kδ): 240 nM

Cc1ccc([N+](=O)[O-])cc1S(=O)(=O)N(C)/N=C/c1cnc2ccc(Br)cn12 [PIK-75]
IC50 (DNA-PK): 2 nM | IC50 (PI3Kγ): 76 nM

RSGLRSS
Count (J774A.1 cells [1]): 9519

O=C1NC(=O)C(=Cc2ccc(-c3ccc(F)cc3)o2)S1 (stereo in doubt) [CAY10505]
IC50 (PI3Kγ): 33 nM

FC(F)c1nc2ccccc2n1-c1nc(N2CCOCC2)nc(N2CCOCC2)n1 [ZSTK474]
IC50 (class I PI3K isoforms; read-out: IC50 for PI3K isoforms stated together (PI3Kα/β/δ/γ; class I PI3K isoforms)): 37 nM

SVAYD
Count (J774A.1 cells [1]): 10187

CGNKRTRGC (also: cyclic, kind and places not given here) [LyP-1, receptor is cell surface protein p32]
homing to / recognition of macrophages in atherosclerosis plaques [7]: homes to macrophages residing in atherosclerosis plaques; also recorded: recognizes macrophages both in tumors and atherosclerotic plaques | tumor growth (tumor): slows down tumor growth | atherosclerotic plaque (atherosclerotic plaque): reduces atherosclerotic plaque

GRVLRSS
Count (J774A.1 cells [1]): 6774

O=c1c(O)c(-c2ccc(O)c(O)c2)oc2cc(O)cc(O)c12 [Quercetin]
IC50 (class I PI3K isoforms; isoform not stated, read-out: PI3K IC50): 2400 to 5400 nM
